Source: patent publication US20120108501A1, “Protease Inhibitors” (priority 2009, published 2012)
Where a name gives a salt, the structure may show the parent alone. Read-outs that look alike come from different tables or passages of the source.

Assays:
[1] = Pharmacokinetics of PEGylated protease inhibitor prodrugs in rats; assay type: in vivo, male Sprague-Dawley rats; design: AUCall / AUC: concentration or dose not given beside the values; settings: prodrug in plasma; for MRT last / concentration at 24 hr / AUC / Cmax / half-life: male, Sprague-Dawley, rat; for concentration at 24 hr: read-out: Cmin(24 hr); for AUC / Cmax: mean ± SD; for Cmax: read-out: Cmax; for half-life: read-out: t½(z) (converted)
Protocol: (§1) Pharmacokinetic analysis of protease inhibitors described herein was conducted. To evaluate the pharmacokinetics of PEGylated protease inhibitor conjugates with releasable lipophilic attachments, test compounds were administered to male Sprague-Dawley rats.
(§2) At various times following test article administration, serial blood samples were collected from indwelling jugular vein catheters and transferred to micro-tubes containing 7.5 μL of 20% w/v K2EDTA as an anticoagulant. Following processing of the blood samples to plasma (10 minutes at 10000 rpm, Centrifuge Model: Kubota 3500), plasma concentrations of the test article or corresponding PEGylated molecule released from the test article was measured using LC-MS/MS methods. Pharmacokinetic parameters were estimated using noncompartmental methods.
Table 3 presents a summary of pharmacokinetic parameters of PEGylated protease inhibitor prodrugs, wherein Cmax is the maximum (peak) concentration, AUCall represents the area under the concentration-time curve from zero to time of last concentration value, T½ is half life, and MRTlast is the mean residence time to last observable concentration

[2] = Pharmacokinetics of released PEGylated protease inhibitor following P.O. administration of prodrugs in rats; assay type: in vivo, male Sprague-Dawley rats; design: AUCall Mean: concentration or dose not given beside the values; C24 Mean: unit not given here; settings: rats (n = 4-5)
Protocol: as §1, §2

[3] = mPEG3-atazanavir in plasma after PO administration of mPEG3-ATV or of the listed prodrug
[4] = mPEG5-atazanavir in plasma after PO administration of mPEG5-ATV or of the listed prodrug
[5] = mPEG6-atazanavir in plasma after PO administration of mPEG6-ATV or of the listed prodrug

Compound	MRT last ([1]; in vivo) [h]	AUC ([1]; in vivo) [ng·h/mL]	Cmax ([1]; in vivo) [ng/mL]	AUCall Mean [2, 5] [ng·h/mL]	Cmax Mean [2, 5] [ng/mL]	MRT last Mean [2, 5] [h]	Tmax Median [2, 5] [h]	further results
COCCOCCOCCOCCOCCOC(=O)N[C@@H](C(=O)N[C@@H](Cc1ccccc1)[C@H](CN(Cc1ccc(-c2ccccn2)cc1)NC(=O)[C@H](NC(=O)OC)C(C)(C)C)OC(=O)CCCC(=O)O[C@@H]1[C@@H](O)[C@@H](O)O[C@@H]1[C@H](O)CO)C(C)(C)C [(5R,10S,11S,14R)-11-benzyl-5,14-di-tert-butyl-3,6,13,16-tetraoxo-8-(4-(pyridin-2-yl)benzyl)-2,17,20,23,26,29,32-heptaoxa-4,7,8,12,15-pentaazatritriacontan-10-yl (2R,3R,4R,5S)-2-((R)-1,2-dihydroxyethyl)-4,5-dihydroxytetrahydrofuran-3-yl glutarate]								MRT last ([1]; oral): 11.4 ± 7.37 h; concentration at 24 hr ([1]; oral, 24 hr): 2.64 ± 2.87 ng/mL; AUC ([1]; oral): 78.5 ± 78.2 ng·h/mL; Cmax ([1]; oral): 13.1 ± 12.4 ng/mL
COCCOCCOCCOCCOCCOC(=O)N[C@H](C(=O)N[C@@H](Cc1ccccc1)[C@H](CN(Cc1ccc(-c2ccccn2)cc1)NC(=O)[C@@H](NC(=O)OC)C(C)(C)C)OC(=O)CNC(=O)[C@@H](N)CC(C)C)C(C)(C)C [Leu-Gly-mPEG5-Atazanavir HCl, Leu-Gly-mPEG5-Atazanavir Hydrochloride]	2.85 ± 3.68	1.53 ± 2.93	0.479 ± 0.572					
COCCOCCOCCOCCOCCOC(=O)N[C@H](C(=O)N[C@@H](Cc1ccccc1)[C@H](CN(Cc1ccc(-c2ccccn2)cc1)NC(=O)[C@@H](NC(=O)OC)C(C)(C)C)OC(=O)CNC(=O)[C@@H](N)Cc1ccccc1)C(C)(C)C [Phe-Gly-mPEG5-Atazanavir HCl, Phe-Gly-mPEG5-Atazanavir Hydrochloride]	0.357 ± 0.129	0.341 ± 0.313	0.895 ± 0.808					
COCCOCCOCCOCCOCCOC(=O)N[C@H](C(=O)N[C@@H](Cc1ccccc1)[C@H](CN(Cc1ccc(-c2ccccn2)cc1)NC(=O)[C@@H](NC(=O)OC)C(C)(C)C)OC(=O)[C@H](CC(C)C)NC(=O)[C@@H](N)Cc1ccccc1)C(C)(C)C [Phe-Leu-mPEG5-Atazanavir HCl, Phe-Leu-mPEG5-Atazanavir Hydrochloride]	1.46 ± 0.396	42.4 ± 11.6	17 ± 4.2					half-life ([1]; in vivo): 91.2 min; Cmin(24 hr) ([1]; 24 hr): BLQ
COCCOCCOCCOC(=O)N[C@H](C(=O)N[C@@H](Cc1ccccc1)[C@H](CN(Cc1ccc(-c2ccccn2)cc1)NC(=O)[C@@H](NC(=O)OC)C(C)(C)C)OC(=O)[C@H](Cc1ccccc1)NC(=O)[C@@H](N)Cc1ccccc1)C(C)(C)C [Phe-Phe-mPEG3-Atazanavir, Phe-Phe-mPEG3-Atazanavir Hydrochloride]	6.27 ± 1.31	609 ± 157	112 ± 31.6					concentration at 24 hr ([1]; in vivo, 24 hr): 3.15 ± 0.946 ng/mL; half-life ([1]; in vivo): 499 ± 72.6 min
COCCOCCOCCOCCOCCOC(=O)N[C@H](C(=O)N[C@@H](Cc1ccccc1)[C@H](CN(Cc1ccc(-c2ccccn2)cc1)NC(=O)[C@@H](NC(=O)OC)C(C)(C)C)OC(=O)CNC(=O)[C@@H](N)C(C)C)C(C)(C)C [Val-Gly-mPEG5-Atazanavir HCl, Val-Gly-mPEG5-Atazanavir Hydrochloride]	0.779 ± 0.513	14.9 ± 18.7	33.7 ± 53.9					half-life ([1]; in vivo): 177 min
COCCOCCOCCOC(=O)N[C@H](C(=O)N[C@@H](Cc1ccccc1)[C@H](CN(Cc1ccc(-c2ccccn2)cc1)NC(=O)[C@@H](NC(=O)OC)C(C)(C)C)OC(=O)[C@H](Cc1ccccc1)NC(=O)[C@@H](N)C(C)C)C(C)(C)C [Val-Phe-mPEG3-Atazanavir, Val-Phe-mPEG3-Atazanavir Hydrochloride]	1.68 ± 0.297	700 ± 361	334 ± 133					half-life ([1]; in vivo): 135 ± 76.8 min
COCCOCCOCCOC(=O)N[C@H](C(=O)N[C@@H](Cc1ccccc1)[C@H](CN(Cc1ccc(-c2ccccn2)cc1)NC(=O)[C@@H](NC(=O)OC)C(C)(C)C)OP(=O)(O)O)C(C)(C)C [mPEG3-ATV-phosphate, mPEG3-atazanavir phosphate]								AUCall Mean [2, 3]: 16.8 ng·h/mL; Cmax Mean [2, 3]: 1.66 ng/mL; MRT last Mean [2, 3]: 7.37 h; Tmax* Median [2, 3]: 1.25 h
COCCOCCOCCOCCOCCOC(=O)NC(C(=O)NC(Cc1ccccc1)C(CN(Cc1ccc(-c2ccccn2)cc1)NC(=O)C(NC(=O)OC)C(C)(C)C)OC(=O)C(N)C(C)C)C(C)(C)C.Cl [mPEG5-ATV-L-valine, mPEG5-Atazanavir-L-valine HCl]								AUCall Mean [2, 4]: 9.14 ng·h/mL; Cmax Mean [2, 4]: 1.09 ng/mL; MRT last Mean [2, 4]: 6.89 h; Tmax Median [2, 4]: 1.00 h
COCCOCCOCCOCCOCCOC(=O)NC(C(=O)NC(Cc1ccccc1)C(CN(Cc1ccc(-c2ccccn2)cc1)NC(=O)C(NC(=O)OC)C(C)(C)C)OCOCCOC)C(C)(C)C (stereo not shown) [mPEG5-ATV-Methyl ethyl methyl ether, mPEG5-Atazanavir Methyl Ethyl Methyl Ether]								AUCall Mean [2, 4]: 32.7 ng·h/mL; Cmax Mean [2, 4]: 3.74 ng/mL; MRT last Mean [2, 4]: 4.92 h; Tmax Median [2, 4]: 2.00 h
COCCOCCOCCOCCOCCOC(=O)N[C@H](C(=O)N[C@@H](Cc1ccccc1)[C@H](CN(Cc1ccc(-c2ccccn2)cc1)NC(=O)[C@@H](NC(=O)OC)C(C)(C)C)OP(=O)(O)O)C(C)(C)C [mPEG5-ATV-phosphate, mPEG5-atazanavir phosphate]								AUCall Mean [2, 4]: 23.1 ng·h/mL; Cmax Mean [2, 4]: 1.52 ng/mL; MRT last Mean [2, 4]: 10.9 h; Tmax Median [2, 4]: 7.00 h
COCCOCCOCCOCCOCCOCCOC(=O)NC(C(=O)NC(Cc1ccccc1)C(CN(Cc1ccc(-c2ccccn2)cc1)NC(=O)C(NC(=O)OC)C(C)(C)C)OC(=O)COCCOC(=O)C(Cc1ccccc1)NC(=O)C(N)Cc1ccccc1)C(C)(C)C (stereo not shown) [mPEG6-ATV-CME-Phe-Phe, mPEG6-atazanavir-ethoxy-CME-Phe-Phe]				102	7.06	21.4	3.25	
CCOC(=O)OC(CN(Cc1ccc(-c2ccccn2)cc1)NC(=O)C(NC(=O)OC)C(C)(C)C)C(Cc1ccccc1)NC(=O)C(NC(=O)OCCOCCOCCOCCOCCOCCOC)C(C)(C)C (stereo not shown) [mPEG6-ATV-Ethyl Carbonate, mPEG6-Atazanavir Ethyl Carbonate]				207	19.9	10.3	1.50	C24 Mean ([2]; concentration at 24 hours, mPEG6-atazanavir in plasma after PO administration of mPEG6-ATV or of the listed prodrug): 4.39
COCCOCCOCCOCCOCCOCCOC(=O)NC(C(=O)NC(Cc1ccccc1)C(CN(Cc1ccc(-c2ccccn2)cc1)NC(=O)C(NC(=O)OC)C(C)(C)C)OC(=O)C(N)C(C)C)C(C)(C)C.Cl [mPEG6-ATV-L-valine, mPEG6-Atazanavir-L-Valine HCl]				73.1	4.05	18.9	12.0	
CCNC(=O)OC(CN(Cc1ccc(-c2ccccn2)cc1)NC(=O)C(NC(=O)OC)C(C)(C)C)C(Cc1ccccc1)NC(=O)C(NC(=O)OCCOCCOCCOCCOCCOCCOC)C(C)(C)C (stereo not shown) [mPEG6-ATV-ethylcarbamate, mPEG6-Atazanavir-NH-ethyl carbamate]				3.07	0.634	15.1	1.00	
COCCOCCOCCOCCOCCOCCOC(=O)NC(C(=O)NC(Cc1ccccc1)C(CN(Cc1ccc(-c2ccccn2)cc1)NC(=O)C(NC(=O)OC)C(C)(C)C)OP(=O)(O)O)C(C)(C)C (stereo not shown) [mPEG6-ATV-phosphate, mPEG6-atazanavir phosphate]				12.1	1.23	23.4	6.13	
mPEG5-atazanavir-ethoxy-CME-Leu-Leu [mPEG5ATV-Ethoxy-CM-Leu-Leu]								AUCall Mean [2, 4]: 50.3 ng·h/mL; Cmax Mean [2, 4]: 1.86 ng/mL; MRT last Mean [2, 4]: 26.7 h; Tmax Median [2, 4]: 24.0 h
mPEG6-atazanavir-ethoxy-CME-Leu-Leu [mPEG6-ATV-Ethoxy-CM-Leu-Leu]				40.6	2.07	13.8	4.00	
